Series [1] has as its target C. albicans cytoplasmic tryptophanyl-tRNA synthetase (recombinant, thrombin-cleaved GST fusion from pC3 822) (Candida albicans, UniProt Q5A3P4). The series can be described thus: Aminoacylation (charging) assay, Km determination with purified recombinant TrpRS. The format is biochemical. Conditions: read-out: Km for tryptophan; recombinant enzyme; crude yeast tRNA; 1 to 40 μM [3H]tryptophan; 25° C. As for the experimental part:
(§1) The purified recombinant protein obtained after thrombin cleavage of the GST-fusion protein produced by JM109/pC^3 822 was used for further kinetic studies. Charging assays were based on the procedure of Shepard et al. (Proc. Natl. Acad. Sci. USA 89:9964-68 (1992)). Unless otherwise stated, a typical 50 μl reaction, carried out at 25° C., contained 1 mM ATP, 1 μM of [^3 H]Tryptophan (22.2 Ci/mmol), 90 μM crude tRNA from brewer's yeast (Boehringer Mannheim), 10 mM KF, 30 mM HEPES, 30 mM KCl pH 7.5, 5 mM MgCl2, and 10 mM DTT. Purified enzyme was diluted in 100 mM HEPES, pH 7.5, 20 mM DTT and 0.1 mg/ml BSA.
(§2) Reactions were started by the addition of enzyme to the reaction mixture preincubated at 25° C., with […] protein in the assay. At various time intervals, 10 μl of the reaction mix was quenched in a 96-well filter plate (Millipore, cat# MAFBNOB50) prefilled with 100 μl of cold 5% TCA. The liquid in the filter plate was drained by applying vacuum suction on the manifold. The plate was subsequently washed 2 times with 200 μl 5% TCA, 2 times with 100 μl double distilled H2 O with continuous vacuum suction, and once with 100 μl 95% EtOH. The plate was heat-dried under vacuum, 100 μl Microscint was added to each well, and the aminoacylated tRNA was quantitated by scintillation counting in a Topcount (Packard) scintillation counter. […]

Series [2] deals with Nc1ncnc2c1ncn2[C@@H]1O[C@H](COP(=O)(O)OP(=O)(O)OP(=O)(O)O)[C@@H](O)[C@H]1O. Described as above. Format: biochemical, Candida albicans. Conditions: other: recombinant enzyme, ATP concentration range 0.19 to 6 mM, 25° C., pH 7.5. As for the experimental part: as §1, §2

Among the data in US6174713A, “Candida cytoplasmic tryptophanyl-tRNA synthetase proteins, nucleic acids and strains comprising same” (Cubist Pharmaceuticals, Inc., priority 1997, dated 2001) are Km values, retold here.

Chain of C. albicans cytoplasmic tryptophanyl-tRNA synthetase (recombinant, thrombin-cleaved GST fusion from pC3 822) (Q5A3P4 whole entry S271A, the tested form may be a part): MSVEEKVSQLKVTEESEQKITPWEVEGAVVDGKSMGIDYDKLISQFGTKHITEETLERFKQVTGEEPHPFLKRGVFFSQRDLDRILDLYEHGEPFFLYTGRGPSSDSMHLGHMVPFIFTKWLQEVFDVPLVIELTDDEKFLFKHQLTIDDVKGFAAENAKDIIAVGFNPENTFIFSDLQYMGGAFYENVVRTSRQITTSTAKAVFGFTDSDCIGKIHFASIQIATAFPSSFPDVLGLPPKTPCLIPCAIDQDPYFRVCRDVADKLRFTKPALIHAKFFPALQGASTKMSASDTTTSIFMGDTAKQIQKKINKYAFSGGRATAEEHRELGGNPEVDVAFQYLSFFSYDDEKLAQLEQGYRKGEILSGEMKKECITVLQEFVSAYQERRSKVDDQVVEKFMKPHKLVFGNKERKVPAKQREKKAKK

`N[C@@H](Cc1c[nH]c2ccccc12)C(=O)O` [tryptophan]: the Km in series [1] lay in the range of 3 to 4 µM.
In the case of “C. albicans cytoplasmic tryptophanyl-tRNA synthetase (recombinant, thrombin-cleaved GST fusion from pC3 822) (Candida albicans SC5314)”, in series [2], the Km came out at 1100 µM.
